Test results from paper PMC8584173, “The Cytotoxic Effect of Copper (II) Complexes with Halogenated 1,3-Disubstituted Arylthioureas on Cancer and Bacterial Cells” (International Journal of Molecular Sciences, 2021).

Assays:
S. aureus 585 = assay: MIC, hospital MRSA strain; type: cell-based, Staphylococcus aureus; conditions: hospital MRSA S. aureus 585
Protocol: (§1) The antimicrobial activity of the compounds was tested on Gram-positive bacteria (Staphylococcus aureus NCTC 4163, Staphylococcus aureus ATCC 25923, Staphylococcus aureus ATCC 6538, Staphylococcus aureus ATCC 29213, Staphylococcus epidermidis ATCC 12228, Staphylococcus epidermidis ATCC 35984), Gram-negative rods (Escherichia coli ATCC 10538, Escherichia coli ATCC 25922, Pseudomonas aeruginosa ATCC 15442, Pseudomonas aeruginosa ATCC 27863) and yeasts (Candida albicans ATCC 10231, Candida albicans ATCC 90028, Candida parapsilosis ATCC 22019). Hospital methicillin-resistant strains of Staphylococcus aureus and Staphylococcus epidermidis were obtained from the collection of the Department of Pharmaceutical Microbiology, Medical University of Warsaw, Poland.
(§2) Antifungal activities were assessed using Mueller–Hinton agar + 2% glucose and 0.5 µg/mL methylene blue dye medium. Sterile filter paper discs (9 mm diameter, Whatman Number 3 chromatography paper) were dripped with tested compound solutions (in dimethylsulfoxide, DMSO) to load 400 μg of a given compound per disc. Dry discs were placed on the surface of appropriate agar medium. The results (diameter of the growth inhibition zone) were read after 18 h of incubation at 35 °C. Minimal inhibitory concentration (MIC) was tested by the twofold serial microdilution method (in 96-well microtiter plates) using Mueller–Hinton broth medium (Beckton Dickinson) for bacteria or RPMI-1640 medium for Candida species, according to CLSI guidelines. The stock solution of tested agent was prepared in DMSO and diluted in sterile water. […] The final inoculum of all studied microorganisms was 10^5 CFU/ mL^−1 (colony forming units per ml). Minimal inhibitory concentrations (the lowest concentration of a tested agent that prevents visible growth of a microorganism) were read after 18 h (bacteria) or 24 h (yeasts) of incubation at 35 °C.

S. aureus 495 = assay: MIC, hospital MRSA strain; type: cell-based, Staphylococcus aureus; conditions: hospital MRSA S. aureus 495
Protocol: as §1, §2

S. aureus 522 = assay: MIC, hospital MRSA strain; type: cell-based, Staphylococcus aureus; conditions: hospital MRSA S. aureus 522
Protocol: as §1, §2

S. aureus 496 = assay: MIC, hospital MRSA strain; type: cell-based, Staphylococcus aureus; conditions: hospital MRSA S. aureus 496
Protocol: as §1, §2

S. aureus 537 = assay: MIC, hospital MRSA strain; type: cell-based, Staphylococcus aureus; conditions: hospital MRSA S. aureus 537
Protocol: as §1, §2

S. aureus 514 = assay: MIC, hospital MRSA strain; type: cell-based, Staphylococcus aureus; conditions: hospital MRSA S. aureus 514
Protocol: as §1, §2

S. aureus 481 = assay: MIC, hospital MRSA strain; type: cell-based, Staphylococcus aureus; conditions: for MIC: hospital MRSA S. aureus 481
Protocol: as §1, §2

S. aureus 573 = assay: MIC, hospital MRSA strain; type: cell-based, Staphylococcus aureus; conditions: hospital MRSA S. aureus 573
Protocol: as §1, §2

S. aureus 498 = assay: MIC, hospital MRSA strain; type: cell-based, Staphylococcus aureus; conditions: hospital MRSA S. aureus 498
Protocol: as §1, §2

[1] = tested on: hospital S. epidermidis (MRSE); assay: MIC, hospital S. epidermidis; type: cell-based, Staphylococcus epidermidis; conditions: S. epidermidis 424, 471, 511, 515 and 431–433 isolates
Protocol: as §1, §2

[2] = tested on: Bacillus subtilis M45 (rec−); assay: Bacillus subtilis rec-assay, M45; type: cell-based; conditions: B. subtilis M45; 256 µg per disc (NOQ 2 µg per disc)
Protocol: DNA-damaging activity of compounds was tested by rec-assay using two genetically modified Bacillus subtilis strains: M45 (rec^−) and H17 (rec^+). Tested compounds were dissolved in DMSO, and 10 µL of each solution was dripped onto sterile cotton discs (Rotilabo) to load 256 µg of a given compound per 9 mm disc. Discs were placed on the surface nutrient agar plates (Difco), inoculated with 100 µL of bacterial overnight culture and incubated […] at 35 °C. After incubation, the growth inhibition zones were measured. […] Results of the genotoxicity test were estimated after 18 h of incubation at 35 °C by comparing the diameter of the inhibition zone on the B. subtilis M45 (rec^−) strain with that on the B. subtilis H17 (rec^+) strain.

S. epidermidis 510 = assay: MIC, hospital MRSE strain; type: cell-based, Staphylococcus epidermidis; conditions: hospital MRSE S. epidermidis 510
Protocol: as §1, §2

S. epidermidis 469 = assay: MIC, hospital MRSE strain; type: cell-based, Staphylococcus epidermidis; conditions: hospital MRSE S. epidermidis 469
Protocol: as §1, §2

S. epidermidis 438 = assay: MIC, hospital MRSE strain; type: cell-based, Staphylococcus epidermidis; conditions: hospital MRSE S. epidermidis 438
Protocol: as §1, §2

S. epidermidis 424 = assay: MIC, hospital MRSE strain; type: cell-based, Staphylococcus epidermidis; conditions: hospital MRSE S. epidermidis 424
Protocol: as §1, §2

S. epidermidis 435 = assay: MIC, hospital MRSE strain; type: cell-based, Staphylococcus epidermidis; conditions: hospital MRSE S. epidermidis 435
Protocol: as §1, §2

S. epidermidis 423 = assay: MIC, hospital MRSE strain; type: cell-based, Staphylococcus epidermidis; conditions: hospital MRSE S. epidermidis 423
Protocol: as §1, §2

S. epidermidis 511 = assay: MIC, hospital MRSE strain; type: cell-based, Staphylococcus epidermidis; conditions: hospital MRSE S. epidermidis 511
Protocol: as §1, §2

S. epidermidis 432 = assay: MIC, hospital MRSE strain; type: cell-based, Staphylococcus epidermidis; conditions: hospital MRSE S. epidermidis 432
Protocol: as §1, §2

S. epidermidis 513 = assay: MIC, hospital MRSE strain; type: cell-based, Staphylococcus epidermidis; conditions: hospital MRSE S. epidermidis 513
Protocol: as §1, §2

S. epidermidis 436 = assay: MIC, hospital MRSE strain; type: cell-based, Staphylococcus epidermidis; conditions: hospital MRSE S. epidermidis 436
Protocol: as §1, §2

S. epidermidis 515 = assay: MIC, hospital MRSE strain; type: cell-based, Staphylococcus epidermidis; conditions: hospital MRSE S. epidermidis 515
Protocol: as §1, §2

S. epidermidis 471 = assay: MIC, hospital MRSE strain; type: cell-based, Staphylococcus epidermidis; conditions: hospital MRSE S. epidermidis 471
Protocol: as §1, §2

S. epidermidis 433 = assay: MIC, hospital MRSE strain; type: cell-based, Staphylococcus epidermidis; conditions: hospital MRSE S. epidermidis 433
Protocol: as §1, §2

S. epidermidis 437 = assay: MIC, hospital MRSE strain; type: cell-based, Staphylococcus epidermidis; conditions: hospital MRSE S. epidermidis 437
Protocol: as §1, §2

S. epidermidis 431 = assay: MIC, hospital MRSE strain; type: cell-based, Staphylococcus epidermidis; conditions: hospital MRSE S. epidermidis 431
Protocol: as §1, §2

S. epidermidis 420 = assay: MIC, hospital MRSE strain; type: cell-based, Staphylococcus epidermidis; conditions: hospital MRSE S. epidermidis 420
Protocol: as §1, §2

Structure (SMILES) | MIC (S. aureus 585) | MIC (S. aureus 495) | MIC (S. aureus 522) | MIC (S. aureus 496) | MIC (S. aureus 537) | MIC (S. aureus 514) | MIC (S. aureus 481) | MIC (S. aureus 573) | MIC (S. aureus 498) | times more effective than the reference chemotherapeutic (ciprofloxacin) [1] | inhibition zone diameter [2] | MIC (S. epidermidis 510) | MIC (S. epidermidis 469) | MIC (S. epidermidis 438) | MIC (S. epidermidis 424) | MIC (S. epidermidis 435) | MIC (S. epidermidis 423) | MIC (S. epidermidis 511) | MIC (S. epidermidis 432) | MIC (S. epidermidis 513) | further results
O=[N+]([O-])c1cc([N+]2=C(Nc3cccc(Br)c3)[S][Cu-2]23[S]C(Nc2cccc(Br)c2)=[N+]3c2ccc(Cl)c([N+](=O)[O-])c2)ccc1Cl [Compound 2, Copper (II) complex with 1-(3-bromophenyl)-3-(4-chloro-3-nitrophenyl)thiourea] | 8 µg/mL | 8 µg/mL | 8 µg/mL | 8 µg/mL | 8 µg/mL | 8 µg/mL | 8 µg/mL | 8 µg/mL | 8 µg/mL | 2–16 times | 19 mm | 8 µg/mL | 8 µg/mL | 8 µg/mL | 8 µg/mL | 8 µg/mL | 8 µg/mL | 8 µg/mL | 8 µg/mL | 8 µg/mL | MIC (S. epidermidis 436): 8 µg/mL; MIC (S. epidermidis 515): 8 µg/mL; MIC (S. epidermidis 471): 8 µg/mL; MIC (S. epidermidis 433): 8 µg/mL; MIC (S. epidermidis 437): 8 µg/mL; MIC (S. epidermidis 431): 8 µg/mL; MIC (S. epidermidis 420): 8 µg/mL
O=[N+]([O-])c1cc([N+]2=C(Nc3ccc(I)cc3)[S][Cu-2]23[S]C(Nc2ccc(I)cc2)=[N+]3c2ccc(Cl)c([N+](=O)[O-])c2)ccc1Cl [Compound 8, Copper (II) complex with 1-(4-iodophenyl)-3-(4-chloro-3-nitrophenyl)thiourea] | 8 µg/mL | 4 µg/mL | 4 µg/mL | 8 µg/mL | 8 µg/mL | 4 µg/mL | 4 µg/mL | 8 µg/mL | 8 µg/mL | 2–16 times | 14 mm | 8 µg/mL | 8 µg/mL | 8 µg/mL | 8 µg/mL | 8 µg/mL | 8 µg/mL | 8 µg/mL | 8 µg/mL | 8 µg/mL | times more active than ciprofloxacin (S. aureus 481; S. aureus 481): 64 times; MIC (S. epidermidis 436): 8 µg/mL; MIC (S. epidermidis 515): 8 µg/mL; MIC (S. epidermidis 471): 8 µg/mL; MIC (S. epidermidis 433): 4 µg/mL; MIC (S. epidermidis 437): 8 µg/mL; MIC (S. epidermidis 431): 8 µg/mL; MIC (S. epidermidis 420): 8 µg/mL
O=[N+]([O-])c1cc([N+]2=C(Nc3ccccc3Br)[S][Cu-2]23[S]C(Nc2ccccc2Br)=[N+]3c2ccc(Cl)c([N+](=O)[O-])c2)ccc1Cl [Compound 1, Copper (II) complex with 1-(2-bromophenyl)-3-(4-chloro-3-nitrophenyl)thiourea] | 8 µg/mL | 8 µg/mL | 8 µg/mL | 8 µg/mL | 8 µg/mL | 8 µg/mL | 8 µg/mL | 8 µg/mL | 8 µg/mL | 2–16 times | 12 mm | 8 µg/mL | 8 µg/mL | 8 µg/mL | 8 µg/mL | 8 µg/mL | 8 µg/mL | 8 µg/mL | 8 µg/mL | 8 µg/mL | MIC (S. epidermidis 436): 8 µg/mL; MIC (S. epidermidis 515): 4 µg/mL; MIC (S. epidermidis 471): 8 µg/mL; MIC (S. epidermidis 433): 4 µg/mL; MIC (S. epidermidis 437): 8 µg/mL; MIC (S. epidermidis 431): 8 µg/mL; MIC (S. epidermidis 420): 4 µg/mL
